Values after ≈ are worked out from the molar mass of the structure shown.
How the values were obtained:
[1] = tested on: Staphylococcus aureus-SMITH (GC 4543); assay: acute lethal infection in mice; type: in vivo; details: acute lethal infection, female CD-1 mice, intraperitoneal challenge, intravenous 30 min. after infection, 7 day survival
Description: Methods for in Vivo Antibacterial Evaluation
The therapeutic effects of glycopeptide antibiotics of Formula I are determined against acute lethal infections with S. aureus (strain Smith), a penicillin resistant strain of S. pneumoniae (strain GC 1894), and a vancomycin resistant strain of E. fecalis (strain GC 6189 and GC 2246). Female mice, CD-1 (Charles River Laboratories), 20+/−2 gm, are challenged by intraperitoneal injection of sufficient bacteria (suspended in /trypticase Soy Broth or hog gastric mucin) to kill non-treated controls within 24-48 hr. Antibacterial agents, contained in 0.2 mL of saline or 5% dextrose solution, are administered intravenously 30 min. after infection. Five mice are treated at each dose level. The 7 day survival ratios from 3 separate tests are pooled for calculation of median effective dose (ED50).

Staphylococcus sp. = assay: in vitro antibacterial evaluation, MIC by broth dilution; type: cell-based; details: broth dilution, 18 hours at 35° C.
In short: (§1)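 Read-out: the lowest concentration at which the test strain fails to grow. Serial dilutions (64-0.06 μg/mL) in Muller-Hinton II […], 5×10^5 CFU/mL inoculum, NCCLS M7-A2 procedure.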

Enterococcus sp. = assay: as above; type: cell-based; details: broth dilution, 18 hours at 35° C.
In short: as §1

Streptococcus sp. = assay: as above; type: cell-based; details: broth dilution, 18 hours at 35° C.
In short: as §1

Escherichia coli = assay: as above; type: cell-based; details: 18 hours at 35° C.
In short: as §1

COc1cccc(C2OCC3OC(OC4C(CO)OC(Oc5ccc(CC6NC(=O)C(C(C)c7ccccc7)NC(=O)CNC(=O)C(CO)NC(=O)C(C(O)C7CNC(=N)N7C7OC(CO)C(O)C(O)C7O)NC(=O)C(C(O)C7CNC(=N)N7)NC6=O)cc5)C(O)C4O)C(O)C(O)C3O2)c1 (stereo not drawn) [Example 137, Cyclo[glycyl-β-methylphenylalanyl-O-[4-O-[4,6-O-(3-methoxybenzylidene)hexopyranosyl]-hexopyranosyl]tyrosyl-3-(2-iminoimidazolidin-4-yl)seryl-3-(3-hexopyranosyl-2-iminoimidazolidin-4-yl)serylseryl]]
median effective dose (ED50), Staphylococcus aureus-SMITH (GC 4543) [1]: 0.24 mg/kg
MIC Staphylococcus aureus (ATCC 29213) (Staphylococcus sp.): 1 to 2 µg/mL
MIC Staphylococcus aureus (GC 1131) (Staphylococcus sp.): 2 µg/mL (≈ 1.42 µM)
MIC Staphylococcus aureus (GC 3051) (Staphylococcus sp.): 1 to 2 µg/mL
MIC Staphylococcus aureus (GC 3053) (Staphylococcus sp.): 2 to 4 µg/mL
MIC Staphylococcus aureus (GC 4541) (Staphylococcus sp.): 1 to 2 µg/mL
MIC Staphylococcus aureus (GC 4542) (Staphylococcus sp.): 1 to 2 µg/mL
MIC Staphylococcus aureus (GC 4544) (Staphylococcus sp.): 2 µg/mL (≈ 1.42 µM)
MIC Staphylococcus aureus (GC 4545) (Staphylococcus sp.): 2 to 4 µg/mL
MIC Staphylococcus aureus (GC 1131) (Staphylococcus sp.; inoculum 5×10^5 CFU/mL, strain GC 1131): 2 µg/mL (≈ 1.42 µM)
MIC Staphylococcus aureus (ATCC 29213) (Staphylococcus sp.; strain ATCC 29213): 1 to 2 µg/mL
MIC Staphylococcus aureus (GC 3051) (Staphylococcus sp.; strain GC 3051): 1 to 2 µg/mL
MIC Staphylococcus aureus (GC 3053) (Staphylococcus sp.; strain GC 3053): 2 to 4 µg/mL
MIC Staphylococcus aureus (GC 4541) (Staphylococcus sp.; strain GC 4541): 1 to 2 µg/mL
MIC Staphylococcus aureus (GC 4542) (Staphylococcus sp.; strain GC 4542): 1 to 2 µg/mL
MIC Staphylococcus aureus-SMITH (GC 4543) (Staphylococcus sp.; strain GC 4543): 1 to 2 µg/mL
MIC Staphylococcus aureus (GC 4544) (Staphylococcus sp.; strain GC 4544): 2 µg/mL (≈ 1.42 µM)
MIC Staphylococcus aureus (GC 4545) (Staphylococcus sp.; strain GC 4545): 2 to 4 µg/mL
MIC Staphylococcus haemolyticus (GC 4546) (Staphylococcus sp.; strain GC 4546): 1 µg/mL (≈ 0.708 µM)
MIC Coagulase Negative Staphylococcus (GC 4547) (Staphylococcus sp.; strain GC 4547): 1 to 2 µg/mL
MIC Coagulase Negative Staphylococcus (GC 4548) (Staphylococcus sp.; strain GC 4548): 0.5 to 2 µg/mL
MIC Coagulase Negative Staphylococcus (GC 4549) (Staphylococcus sp.; strain GC 4549): 0.5 to 1 µg/mL
MIC Coagulase Negative Staphylococcus (GC 4551) (Staphylococcus sp.; strain GC 4551): 1 to 2 µg/mL
MIC Coagulase Negative Staphylococcus (GC 6257) (Staphylococcus sp.; strain GC 6257): 1 µg/mL (≈ 0.708 µM)
MIC Staphylococcus aureus-SMITH (GC 4543) (Staphylococcus sp.; strain SMITH GC 4543): 1 to 2 µg/mL
MIC Enterococcus avium (GC 4558) (Enterococcus sp.; Enterococcus avium (GC 4558)): 4 to 8 µg/mL
MIC Enterococcus faecalis (ATCC 29212) (Enterococcus sp.; Enterococcus faecalis (ATCC 29212)): 4 to 8 µg/mL
MIC Enterococcus faecalis (GC 2242) (Enterococcus sp.; Enterococcus faecalis (GC 2242)): 4 to 8 µg/mL
MIC Enterococcus faecalis (GC 2691) (Enterococcus sp.; Enterococcus faecalis (GC 2691)): 4 to 8 µg/mL
MIC Enterococcus faecalis (GC 3059) (Enterococcus sp.; Enterococcus faecalis (GC 3059)): 4 to 8 µg/mL
MIC Enterococcus faecalis (GC 4552) (Enterococcus sp.; Enterococcus faecalis (GC 4552)): 4 to 8 µg/mL
MIC Enterococcus faecalis (GC 4553) (Enterococcus sp.; Enterococcus faecalis (GC 4553)): 4 to 8 µg/mL
MIC Enterococcus faecalis (GC 4554) (Enterococcus sp.; Enterococcus faecalis (GC 4554)): 4 to 8 µg/mL
MIC Enterococcus faecalis (GC 6189) (Enterococcus sp.; Enterococcus faecalis (GC 6189)): 4 µg/mL (≈ 2.83 µM)
MIC Enterococcus faecium (GC 2243) (Enterococcus sp.; Enterococcus faecium (GC 2243)): 4 to 8 µg/mL
MIC Enterococcus faecium (GC 4556) (Enterococcus sp.; Enterococcus faecium (GC 4556)): 4 to 8 µg/mL
MIC Enterococcus faecium (GC 4557) (Enterococcus sp.; Enterococcus faecium (GC 4557)): 2 to 4 µg/mL
MIC Enterococcus faecalis (ATCC 29212) (Enterococcus sp.; strain ATCC 29212): 4 to 8 µg/mL
MIC Enterococcus faecalis (GC 2242) (Enterococcus sp.; strain GC 2242): 4 to 8 µg/mL
MIC Enterococcus faecium (GC 2243) (Enterococcus sp.; strain GC 2243): 4 to 8 µg/mL
MIC Enterococcus faecalis (GC 2691) (Enterococcus sp.; strain GC 2691): 4 to 8 µg/mL
MIC Enterococcus faecalis (GC 3059) (Enterococcus sp.; strain GC 3059): 4 to 8 µg/mL
MIC Enterococcus faecalis (GC 4552) (Enterococcus sp.; strain GC 4552): 4 to 8 µg/mL
MIC Enterococcus faecalis (GC 4553) (Enterococcus sp.; strain GC 4553): 4 to 8 µg/mL
MIC Enterococcus faecalis (GC 4554) (Enterococcus sp.; strain GC 4554): 4 to 8 µg/mL
MIC Enterococcus faecium (GC 4556) (Enterococcus sp.; strain GC 4556): 4 to 8 µg/mL
MIC Enterococcus faecium (GC 4557) (Enterococcus sp.; strain GC 4557): 2 to 4 µg/mL
MIC Enterococcus avium (GC 4558) (Enterococcus sp.; strain GC 4558): 4 to 8 µg/mL
MIC Enterococcus faecalis (GC 6189) (Enterococcus sp.; strain GC 6189): 4 µg/mL (≈ 2.83 µM)
MIC Streptococcus agalactiae (GC 4564) (Streptococcus sp.; Streptococcus agalactiae (GC 4564)): 0.5 µg/mL (≈ 0.354 µM)
MIC Streptococcus pneumoniae (ATCC 6301) (Streptococcus sp.; Streptococcus pneumoniae (ATCC 6301)): 0.12 µg/mL (≈ 0.0849 µM)
MIC Streptococcus pneumoniae (GC 1894) (Streptococcus sp.; Streptococcus pneumoniae (GC 1894)): <0.06 µg/mL
MIC Streptococcus pneumoniae (GC 4565) (Streptococcus sp.; Streptococcus pneumoniae (GC 4565)): 0.25 µg/mL (≈ 0.177 µM)
MIC Streptococcus pyogenes (GC 4563) (Streptococcus sp.; Streptococcus pyogenes (GC 4563)): 0.25 µg/mL (≈ 0.177 µM)
MIC Streptococcus pneumoniae (ATCC 6301) (Streptococcus sp.; strain ATCC 6301): 0.12 µg/mL (≈ 0.0849 µM)
MIC Streptococcus pneumoniae (GC 1894) (Streptococcus sp.; strain GC 1894): <0.06 µg/mL
MIC Streptococcus pyogenes (GC 4563) (Streptococcus sp.; strain GC 4563): 0.25 µg/mL (≈ 0.177 µM)
MIC Streptococcus agalactiae (GC 4564) (Streptococcus sp.; strain GC 4564): 0.5 µg/mL (≈ 0.354 µM)
MIC Streptococcus pneumoniae (GC 4565) (Streptococcus sp.; strain GC 4565): 0.25 µg/mL (≈ 0.177 µM)
MIC Escherichia coli (ATCC 25922) (Escherichia coli; strain ATCC 25922): 64 µg/mL (≈ 45.3 µM)
MIC Escherichia coli (GC 4559) (Escherichia coli; strain GC 4559): 32 to 64 µg/mL
MIC Escherichia coli (GC 4560) (Escherichia coli; strain GC 4560): 1 µg/mL (≈ 0.708 µM)
